Data on one compound can be found in patent publication US20250360130A1, “METHODS OF TREATING INDOLENT SYSTEMIC MASTOCYTOSIS” (Telios Pharma Inc., priority 2024, published 2025).

Bounds are passed on as bounds.

Experiment [1] has as its target T1, BTK (Homo sapiens, UniProt Q06187). The experiment can be described thus: MRGPRX2-induced BTK phosphorylation in ISM-like mast cells. The note with it: 0.1 μM, C48/80 stimulation. Also noted: Human mast cells were differentiated from bone marrow CD34+ cells from six healthy donors; endogenous in cells; host or cells: human mast cells differentiated from bone marrow CD34+ cells of healthy donors, cultured with SCF. The format is cell-based. On the procedure:
(§1) Human mast cells were differentiated from bone marrow CD34+ cells from four healthy donors and were cultured in the presence of SCF (100 ng/mL) to mimic mast cells in ISM and treated with Compound 128 for two hours prior to stimulation. Mas-related G protein-coupled receptor (MRGPRX2) agonists, Compound 48/80 (C48/80; a product of N-methyl-p-methoxyphenethylamine with formaldehyde) or Substance P (SP) were used to activate the MRGPRX2 pathway. For pBTK test, cells were stimulated with C48/80 (10 μg/mL) for ten minutes at 37° C. and cells were stained. The median fluorescence intensity of phosphorylated BTK was measured. The fold change over unstimulated control for pBTK was calculated. For cytokine test, cells were stimulated with C48/80 (10 μg/mL) or SP (30 μM) for four hours at 37° C. Supernatant was collected and cytokine levels were measured using the BD Cytometric Bead Array (CBA) human soluble protein master buffer kit (Becton Dickinson) and BD CBA human soluble protein flex sets for IL-8, MCP-1, GM-CSF and IL-13 (Becton Dickinson). Cytokine levels were measured and normalized to percent of control, with 0% representing the level of the unstimulated control.

The target of experiment [2] is T1, BTK. The experiment can be described thus: Phospho-BTK (pBTK) test in basophils, whole blood. The format is cell-based. Further details: Human mast cells were differentiated from bone marrow CD34+ cells from six healthy donors; endogenous in cells; host or cells: human mast cells differentiated from bone marrow CD34+ cells of healthy donors, cultured with SCF. The note with it: 24 hours exposure, CCR3+ basophils, anti-FcεR stimulation; read-out: average EC50 (n=4), pBTK (Y223) normalized to DMSO control. On the procedure: Blood from four healthy donors was drawn and Compound 128 was added at various concentrations (10 µM, 3.16 μM, 1 μM, 0.3 μM, 0.1 μM, 0.03 μM, or 0 μM). Blood samples were gently rocked at room temperature for 24 hours. The pBTK test was then conducted by (1) stimulating the blood with anti-FcεR stimulation control from Flow Cast Basophil Activation Kit and staining cells for CCR3 (Becton Dickinson) and a near-IR dead cell stain (nIR; Invitrogen) for 15 minutes at 37° C., (2) lysing red blood cells and fixing cells with Phosflow Lyse/Fix Buffer (Becton Dickinson) at 37° C. for 10 minutes, (3) washing once with 1× phosphate-buffered saline (PBS), (4) washing twice with Perm/Wash buffer (Becton Dickinson), (5) permeabilizing cells with Perm/Wash buffer on ice for 15 minutes, (6) staining cells for rabbit anti-human pBTK (Abcam) for 30 minutes on ice, (7) washing twice with Perm/Wash buffer, (8) staining with goat anti-rabbit secondary antibody (Invitrogen) for 30 minutes on ice, (9) washing twice with Perm/Wash buffer, and (10) acquiring data on a flow cytometer. Live basophils were defined as nIR−, CCR3+ and low side scatter. The median fluorescence intensity of phosphorylated BTK was measured and percent of stimulated control was calculated. […] The percent of stimulated control of activated mast cells (CD63+) was calculated. […]

Experiment [3] deals with healthy mast cells and ISM mast cells. The experiment can be described thus: Potency across healthy mast cells and ISM mast cells (FIG. 16). The experiment is classed as cell-based, human. The following applies: presence of SCF, NP-IgE sensitization, NP-BSA stimulation. As to the method:
Healthy BM-MC donor 0166 and ISM WB-MC 1061-004 17 Jan. 2024 and 17 Oct. 2024. Experiments performed in the presence of SCF. Sensitization and Stimulation: NP-IgE (100 ng/ml) 18 hrs, NP-BSA (0.5 ng/ml) for 15 min at 37° C. (CD63, CD203, pBTK and histamine) or 4 min at RT (Calcium Flux).

Experiment [4] deals with mast cells. The experiment can be described thus: Return of degranulation after Compound 128 exposure and washout (FIG. 18). The format is cell-based, human. The note with it: after Compound 128 exposure, flow cytometry. The text has this:
FIGS. 18A-D show return of degranulation after Compound 128 exposure.
(In flow cytometry, cells or beads pass a laser one at a time.)

The test system of the next experiment is MRGPRX2. Put plainly: MRGPRX2-mediated cytokine production in ISM-like mast cells. The experiment is classed as cell-based, human. On the procedure: as §1
For experiment [5], the system named is mast cells. Put plainly: Downstream signaling proteins in antigen-stimulated mast cells (FIG. 20). The experiment is classed as cell-based. The note with it: mast cells stimulated with an antigen.
A further experiment deals with basophils. The experiment can be described thus: Basophil Activation Test (BAT), CD63, whole blood. The format is cell-based, human. The note with it: 24 hours versus 2 hours drug exposure. As to the method:
The BAT was conducted as set forth in Santos (2021) Allergy, 76:2420-2432. Blood from six healthy donors was drawn and Compound 128 was added at various concentrations (10 μM, 3.16 μM, 1 μM, 0.3 μM, 0.1 μM, 0.03 μM, or 0 μM). Blood samples were gently rocked at room temperature for 2 hours, 24 hours, or 48 hours. The BAT assay using the Flow Cast Basophil Activation Kit (Buhlmann Diagnostics; Catalog #B-CCR-STCON) was then conducted following manufacturer instructions by (1) stimulating the blood with anti-FcεR stimulation control in stimulation buffer with IL-3 and staining cells for CCR3 and CD63 for 15 minutes at 37° C., (2) lysing red blood cells and fixing cells with Lysing Reagent at room temperature for 10 minutes, (3) washing cells with Wash Buffer, and (4) acquiring data on a flow cytometer. Activated basophils were defined as CCR3+, low side scatter and CD63+. Percent of activated basophils was calculated as number of activated basophils over the total number of basophils. A four-parameter logistic regression was applied to determine the EC50 and EC90.

T1 sequence (Q06187 whole entry): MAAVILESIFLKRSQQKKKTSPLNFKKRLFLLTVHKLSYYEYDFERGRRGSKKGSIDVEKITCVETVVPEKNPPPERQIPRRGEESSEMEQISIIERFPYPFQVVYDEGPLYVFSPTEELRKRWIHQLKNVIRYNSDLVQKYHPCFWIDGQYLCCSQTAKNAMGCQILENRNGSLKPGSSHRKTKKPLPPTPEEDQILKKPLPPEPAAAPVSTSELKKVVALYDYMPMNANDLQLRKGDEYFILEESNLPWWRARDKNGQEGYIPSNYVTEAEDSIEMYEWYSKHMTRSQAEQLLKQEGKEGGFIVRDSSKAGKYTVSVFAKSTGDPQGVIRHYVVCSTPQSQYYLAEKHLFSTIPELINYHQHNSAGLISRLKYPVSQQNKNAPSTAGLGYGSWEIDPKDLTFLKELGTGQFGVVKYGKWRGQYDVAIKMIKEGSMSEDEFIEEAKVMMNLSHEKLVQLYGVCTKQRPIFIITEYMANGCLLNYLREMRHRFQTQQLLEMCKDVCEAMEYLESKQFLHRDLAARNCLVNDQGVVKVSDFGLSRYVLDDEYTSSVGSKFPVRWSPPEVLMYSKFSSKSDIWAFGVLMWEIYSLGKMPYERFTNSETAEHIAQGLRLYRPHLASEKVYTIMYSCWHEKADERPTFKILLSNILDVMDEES

Usually EC50 stands for the concentration that produces a half-maximal response. Turning to `C=CC(=O)N1CCC(F)(CNc2ncnc(N)c2-c2ccc(Oc3ccccc3)cc2)CC1` [Compound 128, 1-(4-(((6-amino-5-(4-phenoxyphenyl)pyrimidin-4-yl)amino)methyl)-4-fluoropiperidin-1-yl)prop-2-en-1-one], the “MRGPRX2-induced BTK phosphorylation” value at BTK [1] was “inhibited”. For the same compound, on BTK [2], the concentration giving a half-maximal response (EC50) was found to be 130 nM. The “potency in healthy versus ISM mast cells (CD63, CD203, pBTK, histamine, calcium flux)” value in experiment [3] is “equipotent”. Also, the “time to restoration of degranulation after inhibition” value in the experiment on mast cells [4] is at most 24 h. In addition, the MRGPRX2-mediated cytokine production entry with MRGPRX2 (0.1 μM) is on record as “partially inhibited”; with MRGPRX2 (0.5 and 1 μM), “inhibition of cytokine production was increased”. Also, the C48/80-mediated cytokine production entry with MRGPRX2 (Compound 48/80 agonist) is “partial inhibition”. The SP-mediated cytokine production entry in the experiment on MRGPRX2 (Substance P (SP) agonist) is given as “fully inhibited”. In addition, the “activation of multiple downstream signaling proteins” value in the experiment with mast cells [5] is “can be inhibited”. For the same compound, the “potency increase after 24 hours drug exposure” value in the experiment with basophils is given as “approximately 4 fold”.
